Experimental data: paper PMC6897958, “Structural basis of ligand selectivity and disease mutations in cysteinyl leukotriene receptors” (Nature Communications, 2019)
Entries after “also recorded” stand apart in the source; their conditions may differ.

System: HEK293 cells
Assay: Quantification of LTD4 degradation in IP1 assay (UPLC/MS)
Format: in vitro ADME
Settings: 10 µM LTD4 over HEK293 monolayer, 30 min, 37 °C, with or without L-Cys
Method: HEK293 cells were seeded in a 6-well plate at a density of 300,000 cells per well. Forty-eight hours after seeding, medium was removed, and cells were washed twice with PBS. […] After incubation, supernatant was filtered through a 0.22 µm PVDF filter and an internal standard was added before injection on UPLC/MS (Waters UPLC system coupled with a SQ detector 2 and a PDA eλ detector, using an Acquity UPLC BEH C18 column, 2.1 mm × 50 mm, 1.7 μm spherical size). UPLC chromatograms were recorded using the following gradient: water + 0.1% TFA and acetonitrile (0 → 0.2 min, 5% acetonitrile; 0.2 → 1.5 min, 5% → 95%; 1.5 → 1.8 min, 95%; 1.8 → 2.0 min, 95% → 5%; and 2.0 → 2.5 min, 5%). Quantification was done by determining the area under the curve (AUC) ratio of the tested compound over AUC of the internal standard. […] Quantification results are expressed as mean ± s.e.m. of three independent experiments.

## CCCCC/C=C\C\C=C/C=C/C=C/[C@@H](SC[C@H](N)C(=O)NCC(=O)O)[C@@H](O)CCCC(=O)O [LTD4]
  LTD4 conversion/degradation in functional assay: No LTD4 conversion was found; also recorded: No LTD4 degradation was observed
